Test results reported in patent US20250290117A1, “MOLECULAR PHENOTYPIC ANTIMICROBIAL SUSCEPTIBILITY TESTING” (priority 2024, published 2025).

Experiments:
Escherichia coli = assay: Molecular phenotypic antimicrobial susceptibility test (extraction or DNA purification prior to PCR); assay type: cell-based
How it was run: (§1)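 Patient specimens in boric acid were grown in culture medium, adjusted to 0.5 McFarland by optical density, then incubated 12-16 hours with antimicrobials in Mueller Hinton Broth at breakpoint concentrations. Growth was read by semi-quantitative PCR, alongside a no-antimicrobial well for pathogen load.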

E. coli [1] = assay: Molecular phenotypic antimicrobial susceptibility test, specimen with two detected pathogens incubated together without isolation; assay type: cell-based, Escherichia coli; details: E. coli in specimen with two detected pathogens (E. coli and M. morganii) incubated together; for Ct of Sensitive Breakpoint: Ct of controls (average) 15.93; for Molecular Antimicrobial Susceptibility Result: at sensitive breakpoint
How it was run: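 Specimen in boric acid; pathogens identified by PCR while a parallel aliquot grew 4-6 h in liquid medium. With >10,000 cells/mL detected, culture diluted to 0.5 McFarland and exposed to antimicrobials in broth (e.g. Mueller Hinton) at breakpoint concentrations; both pathogens incubated together unisolated, growth read by molecular methods against medium-only wells.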

E. coli [2] = assay: Molecular phenotypic antimicrobial susceptibility test with direct PCR (no extraction DNA purification step); assay type: cell-based, Escherichia coli
[3] = system: pathogens of clinical samples; assay: Molecular phenotypic antimicrobial susceptibility test of clinical samples, direct PCR without a separate DNA purification step (Table 6); assay type: cell-based
How it was run: as §1

[4] = E. coli isolate 4, at sensitive breakpoint
[5] = E. coli isolate 5, Ct at control (average) 21.0933
[6] = E. coli isolate 5, at sensitive breakpoint
[7] = E. coli #1 - WDCM 00090 - 6.2×E3, specimen with <10,000 cells/mL, direct PCR after 16 hours of incubation
[8] = E. coli #1 - WDCM 00090 - 6.2×E3, specimen with <10,000 cells/mL, direct PCR after 16 hours of incubation, Ct at control 13.787
[9] = E. coli #2 - WDCM 00090 - 6.2×E3, specimen with <10,000 cells/mL, direct PCR after 16 hours of incubation
[10] = E. coli #2 - WDCM 00090 - 6.2×E3, specimen with <10,000 cells/mL, direct PCR after 16 hours of incubation, Ct at control 13.46
[11] = E. coli isolate JJ1887, direct PCR, Ct at control (average) 12.832
[12] = E. coli isolate JJ1887, direct PCR, at sensitive breakpoint
[13] = E. coli, clinical sample of r10-r24
[14] = E. coli, clinical sample of r158-r172
[15] = K. aerogenes, clinical sample of r136-r150
[16] = K. pneumoniae, clinical sample of r121-r135
[17] = M. morganii, clinical sample of r55-r69
[18] = M. morganii, clinical sample of r70-r84
[19] = P. mirabilis, clinical sample of r25-r39
[20] = P. mirabilis, clinical sample of r40-r54

| SMILES | Molecular Antimicrobial Susceptibility Result (Escherichia coli; [4]) | Ct at Sensitive Breakpoint (Escherichia coli; [5]) | Molecular Antimicrobial Susceptibility Result (Escherichia coli; [6]) | Ct of Sensitive Breakpoint (E. coli [1]) | Molecular Antimicrobial Susceptibility Result (E. coli [1]) | Molecular Antimicrobial Susceptibility Result (E. coli [2]; [7]) | Ct at Sensitive Breakpoint (E. coli [2]; [8]) | Molecular Antimicrobial Susceptibility Result (E. coli [2]; [9]) | Ct at Sensitive Breakpoint (E. coli [2]; [10]) | Ct at Sensitive Breakpoint (E. coli [2]; [11]) | Molecular Antimicrobial Susceptibility Result (E. coli [2]; [12]) | Molecular Antibiotic Susceptibility Result [3, 13] | Molecular Antibiotic Susceptibility Result [3, 14] | Molecular Antibiotic Susceptibility Result [3, 15] | Molecular Antibiotic Susceptibility Result [3, 16] | Molecular Antibiotic Susceptibility Result [3, 17] | Molecular Antibiotic Susceptibility Result [3, 18] | Molecular Antibiotic Susceptibility Result [3, 19] | Molecular Antibiotic Susceptibility Result [3, 20] | further results |
| --- | --- | --- | --- | --- | --- | --- | --- | --- | --- | --- | --- | --- | --- | --- | --- | --- | --- | --- | --- | --- |
| Cc1nnc(SCC2=C(C(=O)O)N3C(=O)[C@@H](NC(=O)Cn4cnnn4)[C@H]3SC2)s1 [Cefazolin] | Resistant | 25.36 | Sensitive (Antimicrobial wells with pathogen load detected below the control wells (typically >2 cycle thresholds later) may be reported as Sensitive) | 15.46 | Resistant | Sensitive (Antimicrobial wells with pathogen load detected below the control wells (typically >2 cycle thresholds later) may be reported as Sensitive) | 25.72 | Sensitive (Antimicrobial wells with pathogen load detected below the control wells (typically >2 cycle thresholds later) may be reported as Sensitive) | 26.56 | 12.804 | Resistant | Sensitive (Antimicrobial wells with pathogen load detected below the control wells (typically >2 cycle thresholds later) may be reported as Sensitive) | Sensitive (Antimicrobial wells with pathogen load detected below the control wells (typically >2 cycle thresholds later) may be reported as Sensitive) | Sensitive (Antimicrobial wells with pathogen load detected below the control wells (typically >2 cycle thresholds later) may be reported as Sensitive) | Sensitive (Antimicrobial wells with pathogen load detected below the control wells (typically >2 cycle thresholds later) may be reported as Sensitive) | Resistant | Resistant | Sensitive (Antimicrobial wells with pathogen load detected below the control wells (typically >2 cycle thresholds later) may be reported as Sensitive) | Sensitive (Antimicrobial wells with pathogen load detected below the control wells (typically >2 cycle thresholds later) may be reported as Sensitive) | Ct at Sensitive Breakpoint (Escherichia coli; E. coli isolate 1, Ct at control (average) 21.238): 20.925; Molecular Antimicrobial Susceptibility Result (Escherichia coli; E. coli isolate 1, at sensitive breakpoint): Resistant; Ct at Sensitive Breakpoint (Escherichia coli; E. coli isolate 2, Ct at control (average) 21.270): 19.313; Molecular Antimicrobial Susceptibility Result (Escherichia coli; E. coli isolate 2, at sensitive breakpoint): Resistant; Ct at Sensitive Breakpoint (Escherichia coli; E. coli isolate 3, Ct at control (average) 22.0995): 20.834; Molecular Antimicrobial Susceptibility Result (Escherichia coli; E. coli isolate 3, at sensitive breakpoint): Resistant; Ct at Sensitive Breakpoint (Escherichia coli; E. coli isolate 4, Ct at control (average) 17.5733): 17.23 |
| CC1(C)S[C@@H]2[C@H](NC(=O)[C@H](N)c3ccccc3)C(=O)N2[C@H]1C(=O)O [Ampicillin] | Resistant | 24.64 | Sensitive (Antimicrobial wells with pathogen load detected below the control wells (typically >2 cycle thresholds later) may be reported as Sensitive) | 15.14 | Resistant | Sensitive (Antimicrobial wells with pathogen load detected below the control wells (typically >2 cycle thresholds later) may be reported as Sensitive) | 25.93 | Sensitive (Antimicrobial wells with pathogen load detected below the control wells (typically >2 cycle thresholds later) may be reported as Sensitive) | 26.22 | 12.265 | Resistant | Resistant | Sensitive (Antimicrobial wells with pathogen load detected below the control wells (typically >2 cycle thresholds later) may be reported as Sensitive) | Sensitive (Antimicrobial wells with pathogen load detected below the control wells (typically >2 cycle thresholds later) may be reported as Sensitive) | Resistant | Resistant | Resistant | Sensitive (Antimicrobial wells with pathogen load detected below the control wells (typically >2 cycle thresholds later) may be reported as Sensitive) | Sensitive (Antimicrobial wells with pathogen load detected below the control wells (typically >2 cycle thresholds later) may be reported as Sensitive) | Ct ([3]; E. coli, clinical sample of r10-r24, Ct control avg 12.97): 12.039; Ct ([3]; E. coli, clinical sample of r158-r172, Ct control avg 12.894): 28.274; Molecular Antibiotic Susceptibility Result ([3]; E. faecalis, clinical sample of r93-r99): Sensitive (Antimicrobial wells with pathogen load detected below the control wells (typically >2 cycle thresholds later) may be reported as Sensitive); Ct ([3]; E. faecalis, clinical sample of r93-r99, Ct control avg 22.011): 29.527; Molecular Antibiotic Susceptibility Result ([3]; E. faecalis, clinical sample of r100-r106): sensitive; Ct ([3]; E. faecalis, clinical sample of r100-r106, Ct control avg 21.027): 33.467; Molecular Antibiotic Susceptibility Result ([3]; E. faecalis, clinical sample of r107-r113): sensitive; Ct ([3]; E. faecalis, clinical sample of r107-r113, Ct control avg 20.529): 27.555; Molecular Antibiotic Susceptibility Result ([3]; E. faecalis, clinical sample of r114-r120): Sensitive (Antimicrobial wells with pathogen load detected below the control wells (typically >2 cycle thresholds later) may be reported as Sensitive); Ct ([3]; E. faecalis, clinical sample of r114-r120, Ct control avg 20.909): 27.767; Molecular Antibiotic Susceptibility Result ([3]; E. faecalis, clinical sample of r151-r157): Sensitive (Antimicrobial wells with pathogen load detected below the control wells (typically >2 cycle thresholds later) may be reported as Sensitive); Ct ([3]; E. faecalis, clinical sample of r151-r157, Ct control avg 18.551): 32.884; Ct ([3]; K. aerogenes, clinical sample of r136-r150, Ct control avg 13.854): 16.046; Ct ([3]; K. pneumoniae, clinical sample of r121-r135, Ct control avg […]): 14.269; Ct ([3]; M. morganii, clinical sample of r55-r69, Ct control avg 12.09): 10.538; Ct ([3]; M. morganii, clinical sample of r70-r84, Ct control avg 11.677): 11.867; Ct ([3]; P. mirabilis, clinical sample of r25-r39, Ct control avg 11.801): 29.219; Ct ([3]; P. mirabilis, clinical sample of r40-r54, Ct control avg 10.06): 30.995 |
